The target in this assay is T1, AM2 receptor-expressing cells (1321N1 cells transfected with CALCRL+RAMP3) (Homo sapiens, UniProt O60896+Q16602).
T1 construct: host or cells: 1321N1 cells
In words: AM2 receptor inhibition, LANCE cAMP agonist-antagonist competition assay (AM2 D2 protocol). Format: cell-based. The settings on record: inhibition of AM induced cAMP in 1321N1 cells expressing CALCRL+RAMP3; read-out: AM2 D2 protocol: pIC50 (converted). Here is the method:
Compounds were assessed for their ability to inhibit ligand-induced elevations of cAMP, using the Perkin Elmer LANCE cAMP assay using commercially-available cells expressing a specific receptor of interest using the following general procedure:
Compounds were prepared in dimethyl sulfoxide (DMSO—99.9% pure) (Sigma Aldrich, Cat #: D4540) added to powder stocks to produce a 20 mM solution (100% DMSO) that was sonicated at 37° C. for 10 minutes to fully dissolve the compounds. The 20 mM stocks were diluted further in DMSO to produce a 2 mM solution that was sonicated at 37° C. for 10 minutes. 2 mM stocks were dissolved in assay/stimulation buffer to produce a 400 μM solution that was sonicated at 37° C. for 10 minutes for all cAMP assays. All stocks were stored at −20° C. Then serial dilution (Dilution factor: 10) was performed to achieve the desire experimental concentrations.
Competition assays were performed according to the manufactures instructions using LANCE® TR-FRET cAMP assay kit (Perkin Elmer, Cat #: AD0264). Serial dilutions (3 μl/well) of the molecules were plated in a 384-well OptiPlate (Perkin Elmer, Cat #: 6007299) in duplicates. Appropriate controls (100% stimulation: Forskolin and 0% stimulation: Vehicle control) (6 μl/well) were included in each plate for data normalization. Following the compound addition, 6 μl of G-protein coupled receptor overexpressing cells/Alexa Fluor antibody solution (1:100 dilution) was added in each well at a desired density of 2500 cells/well. The overexpressing cell lines were purchased from DiscoveRx, Birmingham, UK. After spinning the plate at 1000 rpm for 1 minute and vortexing briefly, the cells were pre-incubated with the compounds for 30 minutes at room temperature (covered). Then 3 μl of the equivalent peptide ligand (EC50 dose) was added to all the wells except vehicle and forskolin controls. The plate were then spun down at 1000 rpm for 1 minute and once finished they were vortexed briefly and covered. Cells were stimulated in the presence of the ligands for 15 minutes at room temperature. After stimulation 12 μl of detection mix (Europium-Chelate streptavidin/biotinylated cAMP tracer solution) was added to all wells and incubated for 60 minutes at room temperature. The plate was then read on the Enspire multimode Plate reader (Perkin Elmer), at; 320/340 nm excitation and 615/665 nm emission was recorded.
Assay/Stimulation Buffer (30 mL)—pH 7.4 • 28 mL Hank's Balanced salt solution (+MgCl2, +CaCl2))—(Thermo Fisher Cat #:14170112) • 150 μl HEPES (1M)—(Thermo Fisher Cat #:15630080) • 400 μl Stabilizer (DTPA) Purified BSA (7.5%)—(Perkin Elmer, Cat #: CR84-100) • 60 μl IBMX (250 mM)—(Sigma Aldrich, Cat #: 15879)
The ability of a compound to inhibit the AM induced cAMP activation in AM2 receptor-expressing cells (1321N1 cells transfected with CALCRL+RAMP3, sourced from DiscoverX catalogue number 95-0169C6) was assessed using the protocol above.

T1 sequence (Q16602 23-461): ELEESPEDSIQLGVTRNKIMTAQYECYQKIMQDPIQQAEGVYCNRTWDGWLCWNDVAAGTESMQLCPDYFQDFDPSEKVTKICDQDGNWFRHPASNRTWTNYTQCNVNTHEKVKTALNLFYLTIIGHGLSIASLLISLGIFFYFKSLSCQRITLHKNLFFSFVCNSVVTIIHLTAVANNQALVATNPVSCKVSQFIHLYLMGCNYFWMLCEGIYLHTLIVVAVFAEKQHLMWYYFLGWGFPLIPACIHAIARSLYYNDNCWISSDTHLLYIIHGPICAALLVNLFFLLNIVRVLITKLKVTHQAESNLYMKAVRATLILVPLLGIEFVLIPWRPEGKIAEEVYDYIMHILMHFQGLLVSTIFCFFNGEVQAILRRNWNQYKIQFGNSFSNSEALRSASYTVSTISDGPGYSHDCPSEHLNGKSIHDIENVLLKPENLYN
T1 sequence (O60896 24-148): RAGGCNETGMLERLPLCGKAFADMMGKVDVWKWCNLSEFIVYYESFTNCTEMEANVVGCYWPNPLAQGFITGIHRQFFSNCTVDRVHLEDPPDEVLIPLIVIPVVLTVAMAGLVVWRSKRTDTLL

For `C[C@@H]1CNC[C@@H](N(CC(=O)Nc2ccc3c(c2)C[C@@]2(C3)C(=O)Nc3ncccc32)C(=O)C(C)(C)C)C1` (relative stereo) [Example 27, N-((3S*,5S*)-5-Methylpiperidin-3-yl)-N-(2-oxo-2-(((R)-2′-oxo-1,1′,2′,3-tetrahydrospiro[indene-2,3′-pyrrolo[2,3-b]pyridin]-5-yl)amino)ethyl)pivalamide], the IC50 was 51.3 nM.

Take `C[C@H]1CC[C@H](N(CC(=O)Nc2ccc3c(c2)C[C@@]2(C3)C(=O)Nc3ncccc32)C(=O)C(C)(C)C)CN1` (relative stereo) [Example 28, N-((3S*,6S*)-6-Methylpiperidin-3-yl)-N-(2-oxo-2-(((R)-2′-oxo-1,1′,2′,3-tetrahydrospiro[indene-3′-pyrrolo[2,3-b]pyridin]-5-yl)amino)ethyl)pivalamide]: the IC50 was 186 nM.

Take `C[C@@H]1CC[C@H](N(CC(=O)Nc2ccc3c(c2)C[C@@]2(C3)C(=O)Nc3ncccc32)C(=O)C(C)(C)C)CN1` (relative stereo) [Example 29, N-((3S*,6R*)-6-Methylpiperidin-3-yl)-N-(2-oxo-2-(((R)-2′-oxo-1,1′,2′,3-tetrahydrospiro[indene-2,3′-pyrrolo[2,3-b]pyridin]-5-yl)amino)ethyl)pivalamide]: the IC50 was 178 nM.

With `CC(C)(C)C(=O)N(CC(=O)Nc1ccc2c(c1)C[C@@]1(C2)C(=O)Nc2ncccc21)C1CCC2CCC1N2` (single isomer, unassigned) [Example 31A], the IC50 was 316 nM.

As to `CC(C)(C)C(=O)N(CC(=O)Nc1ccc2c(c1)C[C@@]1(C2)C(=O)Nc2ncccc21)C1CCC2CCC1N2` (single isomer, unassigned) [Example 31B], the IC50 was 200 nM.

With `CC(C)(C)C(=O)N(CC(=O)Nc1ccc2c(c1)CC1(C2)C(=O)Nc2ncccc21)C1CCCNC1` (centres unmarked) [Example 1, N-(2-Oxo-2-((2′-oxo-1,1′,2′,3-tetrahydrospiro[indene-2,3′-pyrrolo[2,3-b]pyridin]-5-yl)amino)ethyl)-N-(piperidin-3-yl)pivalamide], the IC50 is 14.5 nM.

With `CC(C)(C)C(=O)N(CC(=O)Nc1ccc2c(c1)C[C@@]1(C2)C(=O)Nc2ncccc21)[C@H]1CCCNC1` [Example 2, N-(2-Oxo-2-(((R)-2′-oxo-1,1′,2′,3-tetrahydrospiro[indene-2,3′-pyrrolo[2,3-b]pyridin]-5-yl)amino)ethyl)-N—((S)-piperidin-3-yl)pivalamide], the IC50 was 3.02 nM.

On to `CC(C)(C)C(=O)N(CC(=O)Nc1ccc2c(c1)C[C@@]1(C2)C(=O)Nc2ncccc21)[C@@H]1CCCNC1` [Example 3, N-(2-Oxo-2-(((R)-2′-oxo-1,1′,2′,3-tetrahydrospiro[indene-2,3′-pyrrolo[2,3-b]pyridin]-5-yl)amino)ethyl)-N—((R)-piperidin-3-yl)pivalamide], for which the IC50 was 741 nM.

On to `O=C(CN(C(=O)C12CC(C1)C2)[C@H]1CCCNC1)Nc1ccc2c(c1)C[C@@]1(C2)C(=O)Nc2ncccc21` [Example 4, N-(2-Oxo-2-(((R)-2′-oxo-1,1′,2′,3-tetrahydrospiro[indene-2,3′-pyrrolo [2,3-b]pyridin]-5-yl)amino)ethyl)-N—((S)-piperidin-3-yl)bicyclo[1.1.1]pentane-1-carboxamide], for which the IC50 was 251 nM.

`O=C(CN(C(=O)C1CCCC1)[C@H]1CCCNC1)Nc1ccc2c(c1)C[C@@]1(C2)C(=O)Nc2ncccc21` [Example 5, N-(2-Oxo-2-(((R)-2′-oxo-1,1′,2′,3-tetrahydrospiro[indene-2,3′-pyrrolo[2,3-b]pyridin]-5-yl)amino)ethyl)-N—((S)-piperidin-3-yl)cyclopentanecarboxamide]: the IC50 was 170 nM.

On to `CC(C)(F)C(=O)N(CC(=O)Nc1ccc2c(c1)C[C@@]1(C2)C(=O)Nc2ncccc21)[C@H]1CCCNC1` [Example 6, 2-Fluoro-2-methyl-N-[2-oxo-2-[[(3R)-2-oxospiro[1H-pyrrolo[2,3-b]pyridine-3,2′-indane]-5′-yl]amino]ethyl]-N-[(3S)-3-piperidyl]propanamide], for which the IC50 is 8320 nM.

For `O=C(CN(C(=O)C1(C(F)(F)F)CC1)[C@H]1CCCNC1)Nc1ccc2c(c1)C[C@@]1(C2)C(=O)Nc2ncccc21` [Example 7, N-(2-Oxo-2-(((R)-2′-oxo-1,1′,2′,3-tetrahydrospiro[indene-2,3′-pyrrolo[2,3-b]pyridin]-5-yl)amino)ethyl)-N—((S)-piperidin-3-yl)-1-(trifluoromethyl)cyclopropanecarboxamide], the IC50 was 955 nM.

Turning to `CC1(C(=O)N(CC(=O)Nc2ccc3c(c2)C[C@@]2(C3)C(=O)Nc3ncccc32)[C@H]2CCCNC2)CCC1` [Example 8, 1-Methyl-N-(2-oxo-2-(((R)-2′-oxo-1,1′,2′,3-tetrahydrospiro[indene-2,3′-pyrrolo[2,3-b]pyridin]-5-yl)amino)ethyl)-N—((S)-piperidin-3-yl)cyclobutanecarboxamide], the IC50 was 145 nM.

Turning to `CC(C)(C(=O)N(CC(=O)Nc1ccc2c(c1)C[C@@]1(C2)C(=O)Nc2ncccc21)[C@H]1CCCNC1)C(F)(F)F` [Example 9, 3,3,3-Trifluoro-2,2-dimethyl-N-(2-oxo-2-(((R)-2′-oxo-1,1′,2′,3-tetrahydrospiro[indene-2,3′-pyrrolo[2,3-b]pyridin]-5-yl)amino)ethyl)-N—((S)-piperidin-3-yl)propanamide], the IC50 is 43.7 nM.

For the compound `CC(C)(C#N)C(=O)N(CC(=O)Nc1ccc2c(c1)C[C@@]1(C2)C(=O)Nc2ncccc21)[C@H]1CCCNC1` [Example 10, 2-Cyano-2-methyl-N-(2-oxo-2-(((R)-2′-oxo-1,1′,2′,3-tetrahydrospiro[indene-2,3′-pyrrolo[2,3-b]pyridin]-5-yl)amino)ethyl)-N—((S)-piperidin-3-yl)propenamide], the IC50 was 50.1 nM.

Take `COC(C)(C)C(=O)N(CC(=O)Nc1ccc2c(c1)C[C@@]1(C2)C(=O)Nc2ncccc21)[C@H]1CCCNC1` [Example 11, 2-Methoxy-2-methyl-N-(2-oxo-2-(((R)-2′-oxo-1,1′,2′,3-tetrahydrospiro[indene-2,3′-pyrrolo[2,3-b]pyridin]-5-yl)amino)ethyl)-N—((S)-piperidin-3-yl)propenamide]: the IC50 was 85.1 nM.

On to `O=C(CN(C(=O)C1(C(F)(F)F)CCC1)[C@H]1CCCNC1)Nc1ccc2c(c1)C[C@@]1(C2)C(=O)Nc2ncccc21` [Example 12, N-(2-Oxo-2-(((R)-2′-oxo-1,1′,2′,3-tetrahydrospiro[indene-2,3′-pyrrolo[2,3-b]pyridin]-5-yl)amino)ethyl)-N—((S)-piperidin-3-yl)-1-(trifluoromethyl)cyclobutanecarboxamide], for which the IC50 was 263 nM.

Consider `CC(C)(CC(F)(F)F)C(=O)N(CC(=O)Nc1ccc2c(c1)C[C@@]1(C2)C(=O)Nc2ncccc21)[C@H]1CCCNC1` [Example 13, 4,4,4-Trifluoro-2,2-dimethyl-N-(2-oxo-2-(((R)-2′-oxo-1,1′,2′,3-tetrahydrospiro[indene-2,3′-pyrrolo[2,3-b]pyridin]-5-yl)amino)ethyl)-N—((S)-piperidin-3-yl)butanamide], for which the IC50 is 63.1 nM.

For the compound `CCC1(C(=O)N(CC(=O)Nc2ccc3c(c2)C[C@@]2(C3)C(=O)Nc3ncccc32)[C@H]2CCCNC2)CCOCC1` [Example 14, 4-Ethyl-N-(2-oxo-2-(((R)-2′-oxo-1,1′,2′,3-tetrahydrospiro[indene-2,3′-pyrrolo[2,3-b]pyridin]-5-yl)amino)ethyl)-N—((S)-piperidin-3-yl)tetrahydro-2H-pyran-4-carboxamide], the IC50 is 288 nM.

Turning to `CC1(C(=O)N(CC(=O)Nc2ccc3c(c2)C[C@@]2(C3)C(=O)Nc3ncccc32)[C@H]2CCCNC2)CCNCC1` [Example 15, 4-Methyl-N-(2-oxo-2-(((R)-2′-oxo-1,1′,2′,3-tetrahydrospiro[indene-2,3′-pyrrolo[2,3-b]pyridin]-5-yl)amino)ethyl)-N—((S)-piperidin-3-yl)piperidine-4-carboxamide], the IC50 was 50.1 nM.
